According to publication PMC10799935, “Discovery of a peripheral 5HT2A antagonist as a clinical candidate for metabolic dysfunction-associated steatohepatitis” (Nature Communications, 2024):
Values joined by “and” are separate entries in the source; they are usually repeats but may differ in a detail not shown here. Identical values can stand only once.

Columns and labels:
5HT2A = 5HT2A (Homo sapiens, UniProt P28223); assay: Human 5HT2A inhibition assay (FLIPR calcium 6, 5HT stimulus, stably transfected HEK293 cells); assay type: cell-based; parameters: expressed in transfected cells; host or cells: HEK293; conditions: for inhibition at 1 µM: HEK293, 1 μM, read-out: % Inhibition at 1 μM (SD)
Protocol: The derivatives were evaluated at a concentration of 1 μM for their antagonist activity on the 5HT2A receptor (Tables 1–3)[33],[34]. […] The cells were stained with 100 μL of cytosolic calcium dye using the FLIPR calcium 6 assay solution (Molecular devices, #R8190) supplemented with 2.5 mM probenecid (Sigma; P8761) and incubated for 1 h at 37 °C. After 1 h, the designated amount of the compound was treated in each well and incubated for another 1 h at 37 °C. […] Experimental conditions for the 5HT subtypes can be found in the Supporting Information (Supplementary Table 1).

HFD-fed C57BL/6J mice [1] = assay: DIO mice: quantification of hepatic triglyceride; assay type: in vivo, mouse; conditions: PO, liver; for Hepatic TG Levels, TG, individual animals / Hepatic TG Levels, TG per protein, individual animals: DIO C57BL/6J mice, one value per animal; for Hepatic TG Levels, TG, individual animals / Hepatic TG Levels, TG, group mean: not normalised; for Hepatic TG Levels, TG per protein, group mean / Hepatic TG Levels, TG, group mean: DIO mice
Protocol: Liver tissues were homogenized in 5% NP-40 using FastPrep-24. To solubilize fat, the homogenates were heated to 95 °C for 5 min and cooled at 23 °C, and repeated. Triglyceride Reagent (Sigma-Aldrich) or DW was added and incubated at 37 °C for 30 min to hydrolyze TG into glycerol. For the colorimetric assay of hydrolyzed TG levels, samples were incubated with Free Glycerol Reagent (Sigma-Aldrich) at 37 °C for 5 min. Differences in absorbance at 540 nm between hydrolyzed or non-hydrolyzed TG were quantified using a glycerol standard (Sigma-Aldrich). […]

HFD-fed C57BL/6J mice [2] = assay: DIO mice: blood profiling (serum cholesterol, triglyceride); assay type: in vivo, mouse; conditions: PO; for Blood Biochemistry CHO, individual animals / Blood Biochemistry TG, individual animals: DIO C57BL/6J mice, one value per animal; for Blood Biochemistry CHO, individual animals: serum total cholesterol; for Blood Biochemistry TG, individual animals: serum; for Serum TG levels, group mean / Serum total cholesterol levels (CHO), group mean: DIO mice
Protocol: Blood samples were obtained by cardiac puncture, and plasma was isolated. Blood profiling was performed by GC Pharma (Green Cross Corporation). Plasma TG and cholesterol were detected with an in vitro enzymatic colorimetric assay (CHOL2 and TRIGL; Roche, Germany) using a Cobas 8000 clinical analyzer with a c702 module (Roche).

HFD-fed C57BL/6J mice [3] = assay: DIO mice: liver histology (H&E), NAFLD activity score (steatosis, inflammation, ballooning); assay type: in vivo, mouse; parameters: key to Steatosis (NAFLD Activity Score), individual animals / Steatosis score, group mean: steatosis score 0-3 (0 <5% to 3 >66% fat accumulation); conditions: for Ballooning (NAFLD Activity Score), individual animals / Inflammation (NAFLD Activity Score), individual animals / Steatosis (NAFLD Activity Score), individual animals / Total Activity (Total NAFLD Activity Score), individual animals: DIO C57BL/6J mice, one value per animal; for Hepatocyte ballooning score, Mean Diff. (Vehicle vs. treated): Dunnett's multiple comparisons test
From the text: Epididymal, inguinal, and liver were harvested, fixed in 10% (w/v) neutral buffered formalin solution (Sigma-Aldrich), and embedded in paraffin. Five-micron-thick tissue sections were deparaffinized, rehydrated, and stained with hematoxylin and eosin (H&E)[10]. The total NAFLD activity score (NAS) is a widely used measure of grading for steatosis, lobular inflammation, and ballooning. The total NAS ranges from 0-8 and is the sum of unweighted scores for steatosis (0: <5%, 1: 5 ~ 33%, 2: 33 ~ 66%, 3: >66% fat accumulation in the liver), lobular inflammation (0: no foci inflammation in x200 field, 1: <2 foci inflammation, 2: 2 ~ 4 foci inflammation, 3: >4 foci inflammation), and hepatocellular ballooning (0: none, 1: few ballooning cells, 2: prominent ballooning cells). MASH was diagnosed when NAS was >5, while non-MASH was diagnosed when NAS was <4. According to the MASH CRN scoring system, a certified pathologist determined the NAS[39]. The histological scoring was performed blindly, without knowledge of any other information.

[4] = tested on: lipogenesis-related genes; assay: DIO mice: qRT-PCR of lipogenesis-related genes in liver; assay type: in vivo, mouse; conditions: DIO, PO, fold vs vehicle; for Fasn (Fold), Mean / Htr2a (Fold), Mean / Pparg (Fold), Mean / Srebp1c (Fold), Mean: group mean; for Fasn (Fold) / Htr2a (Fold) / Pparg (Fold) / Srebp1c (Fold): individual mouse
Protocol: Total RNA extractions from harvested tissues were performed using TRIzol according to the manufacturer’s protocol. After TURBO DNase (Invitrogen) treatment, 2 μg of total RNA was used to generate complementary DNA with a High-Capacity cDNA Reverse Transcription Kit (Thermo Fisher Scientific). Quantitative RT-PCR was performed with Fast SYBR Green Master Mix (Thermo Fisher Scientific) and a Viia 7 Real-time PCR System (Thermo Fisher Scientific) according to the manufacturer’s instructions. Gene expression was relatively quantified based on the delta-delta Ct (threshold cycle) method with the beta-actin gene as a reference gene. The sequence of primers can be found in the Supporting Information (Supplementary Table 2).

[5] = DIO mice, PO, 10mpk, mean, 10 mg/kg

Sequence of 5HT2A (P28223 whole entry): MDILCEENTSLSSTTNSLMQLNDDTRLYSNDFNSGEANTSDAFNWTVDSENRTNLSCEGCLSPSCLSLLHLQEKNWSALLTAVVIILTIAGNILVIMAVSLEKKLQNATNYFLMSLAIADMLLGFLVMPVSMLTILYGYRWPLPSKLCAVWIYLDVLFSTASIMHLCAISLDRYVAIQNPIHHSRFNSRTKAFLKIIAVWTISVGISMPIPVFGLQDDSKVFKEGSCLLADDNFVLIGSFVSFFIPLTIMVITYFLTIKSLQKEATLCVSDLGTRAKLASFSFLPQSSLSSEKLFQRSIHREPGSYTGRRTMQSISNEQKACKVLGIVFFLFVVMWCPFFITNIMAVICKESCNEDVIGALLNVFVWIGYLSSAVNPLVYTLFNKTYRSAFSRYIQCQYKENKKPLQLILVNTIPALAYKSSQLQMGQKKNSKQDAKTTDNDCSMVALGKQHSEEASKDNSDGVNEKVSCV

## OC(CN1CCC(=C2c3ccc(Cl)cc3CCc3cccnc32)CC1)c1ccc(Br)cc1 (stereo not drawn) [Compound 9a]
5HT2A
  IC50: 31.9 nM
  inhibition at 1 µM: 92 ± 1.07%

## Cc1nc2n(c(=O)c1CCN1CCC(=C3c4ccc(Cl)cc4CCc4cccnc43)CC1)CCC[C@@H]2O (single isomer, unassigned) [22 f]
5HT2A
  % Inhibition at 1 μM (SD): 96.07 ± 1.87%

## Cc1nc2n(c(=O)c1CCN1CCC(=C3c4ccc(Cl)cc4CCc4cccnc43)CC1)CCC[C@@H]2O (single isomer, unassigned) [Compound 22 f]
5HT2A
  IC50: 10.6 nM

## O=C1Cc2cc(CCN3CCC(=C4c5ccc(Cl)cc5CCc5cccnc54)CC3)c(Cl)cc2N1 [Compound 11a]
5HT2A
  % Inhibition at 1 μM (SD): 94.47 ± 1.53%

## Cc1nc2n(c(=O)c1CCN1CCC(=C3c4ccc(Cl)cc4CCc4cccnc43)CC1)CCCC2O (racemic) [GM106]
HFD-fed C57BL/6J mice [1]; 5mpk, 5 mg/kg
  Hepatic TG Levels, TG, individual animals: 0.07575 mg/mL and 0.09502 mg/mL and 0.09001 mg/mL and 0.07002 mg/mL and 0.1053 mg/mL and 0.1094 mg/mL and 0.1015 mg/mL
  Hepatic TG Levels, TG per protein, individual animals: 71.5854 mg/g protein and 74.7025 mg/g protein and 51.6625 mg/g protein and 103.84 mg/g protein and 123.461 mg/g protein and 75.9936 mg/g protein and 58.3099 mg/g protein
HFD-fed C57BL/6J mice [1]; 10mpk, 10 mg/kg
  Hepatic TG Levels, TG, individual animals: 0.06336 mg/mL and 0.0751 mg/mL and 0.08726 mg/mL and 0.101 mg/mL and 0.08773 mg/mL and 0.06215 mg/mL
  Hepatic TG Levels, TG per protein, individual animals: 41.8429 mg/g protein and 54.7941 mg/g protein and 65.6095 mg/g protein and 56.3849 mg/g protein and 74.0866 mg/g protein and 34.3504 mg/g protein
HFD-fed C57BL/6J mice [1]; 5mpk
  Hepatic TG Levels, TG per protein, group mean: 79.94 mg/g protein
  Hepatic TG Levels, TG, group mean: 0.09 mg/mL
HFD-fed C57BL/6J mice [1]; 10mpk
  Hepatic TG Levels, TG per protein, group mean: 54.51 mg/g protein
  Hepatic TG Levels, TG, group mean: 0.08 mg/mL
HFD-fed C57BL/6J mice [2]; 5mpk, 5 mg/kg
  Blood Biochemistry CHO, individual animals: 245.45 mg/dL and 237.41 mg/dL and 246.17 mg/dL and 215.59 mg/dL and 143.17 mg/dL and 210.2 mg/dL and 246.37 mg/dL
  Blood Biochemistry TG, individual animals: 80.27 mg/dL and 61.12 mg/dL and 86.84 mg/dL and 48.55 mg/dL and 85.94 mg/dL and 70.5 mg/dL and 70.39 mg/dL
  Serum total cholesterol levels (CHO), group mean: 220.62 mg/dL
HFD-fed C57BL/6J mice [2]; 10mpk, 10 mg/kg
  Blood Biochemistry CHO, individual animals: 190.51 mg/dL and 195.99 mg/dL and 228.58 mg/dL and 208.99 mg/dL and 197.21 mg/dL and 184.2 mg/dL
  Blood Biochemistry TG, individual animals: 45.42 mg/dL and 58.97 mg/dL and 70.76 mg/dL and 76.11 mg/dL and 81.65 mg/dL and 74.22 mg/dL
  Serum total cholesterol levels (CHO), group mean: 200.91 mg/dL
HFD-fed C57BL/6J mice [2]; 5mpk
  Serum TG levels, group mean: 71.94 mg/dL
HFD-fed C57BL/6J mice [2]; 10mpk
  Serum TG levels, group mean: 67.86 mg/dL
HFD-fed C57BL/6J mice [3]; PO, 5mpk, 5 mg/kg
  Ballooning (NAFLD Activity Score), individual animals: 2.00 and 1.00 and 0.00
  Inflammation (NAFLD Activity Score), individual animals: 2.00 and 1.00
  Steatosis (NAFLD Activity Score), individual animals: 3.00 and 2.00 and 1.00
  Total Activity (Total NAFLD Activity Score), individual animals: 7.00 and 5.00 and 3.00 and 6.00 and 2.00 and 4.00
HFD-fed C57BL/6J mice [3]; PO, 10mpk, 10 mg/kg
  Ballooning (NAFLD Activity Score), individual animals: 0.00 and 1.00 and 2.00
  Inflammation (NAFLD Activity Score), individual animals: 1.00 and 2.00 and 0.00
  Steatosis (NAFLD Activity Score), individual animals: 0.00 and 1.00
  Total Activity (Total NAFLD Activity Score), individual animals: 1.00 and 3.00 and 5.00 and 0.00
HFD-fed C57BL/6J mice [3]; DIO mice, 5mpk
  Hepatocyte ballooning score, Mean Diff. (Vehicle vs. treated): 0.2857
HFD-fed C57BL/6J mice [3]; DIO mice, 10mpk
  Hepatocyte ballooning score, Mean Diff. (Vehicle vs. treated): 1
HFD-fed C57BL/6J mice [3]; DIO mice, PO, 5mpk, mean, 5 mg/kg
  Steatosis score, group mean: 2.0
HFD-fed C57BL/6J mice [3]; DIO mice, PO, 10mpk, mean
  Steatosis score, group mean: 0.5
HFD-fed C57BL/6J mice [3]; [5]
  Hepatocyte ballooning score, group mean: 1
  Lobular inflammation score, group mean: 1.0
[4]; 5mpk, 7 mice
  Fasn (Fold), Mean: 0.745
  Htr2a (Fold), Mean: 0.510
  Pparg (Fold), Mean: 0.893
  Srebp1c (Fold), Mean: 0.768
[4]; 5mpk, 5 mg/kg
  Fasn (Fold): 0.6490 and 1.2211 and 0.8546 and 0.7608 and 0.3082 and 0.7010 and 0.7176
  Htr2a (Fold): 0.4721 and 0.7255 and 0.4948 and 0.4297 and 0.7599 and 0.2475 and 0.4420
  Pparg (Fold): 0.9158 and 1.2274 and 0.7611 and 0.5677 and 1.3805 and 0.7174 and 0.6847
  Srebp1c (Fold): 0.9242 and 0.7728 and 0.8708 and 0.7607 and 0.6589 and 0.3460 and 1.0400
[4]; 10mpk, 6 mice
  Fasn (Fold), Mean: 0.560
  Htr2a (Fold), Mean: 0.414
  Pparg (Fold), Mean: 1.032
  Srebp1c (Fold), Mean: 0.496
[4]; 10mpk, 10 mg/kg
  Fasn (Fold): 0.3894 and 0.5870 and 0.6740 and 0.7101 and 0.3290 and 0.6694
  Htr2a (Fold): 0.4677 and 0.2891 and 0.2762 and 0.4976 and 0.4041 and 0.5480
  Pparg (Fold): 0.7506 and 1.1267 and 1.0050 and 0.9956 and 1.2727 and 1.0412
  Srebp1c (Fold): 0.4795 and 0.5418 and 0.5388 and 0.5056 and 0.4290 and 0.4815

## O=C1Cc2cc(C(O)CN3CCC(=C4c5ccc(Cl)cc5CCc5cccnc54)CC3)c(Cl)cc2N1 (stereo not drawn) [Compound 9c]
5HT2A
  IC50: 22.2 nM
  inhibition at 1 µM: 93.8 ± 3.13%

## O=C1Cc2cc(C(O)CN3CCC(=C4c5ccc(Cl)cc5CCc5cccnc54)CC3)ccc2N1 (stereo not drawn) [Compound 9b]
5HT2A
  IC50: 21.4 nM
  inhibition at 1 µM: 92.2 ± 1.59%

## O=C(CN1CCC(=C2c3ccc(Cl)cc3CCc3cccnc32)CC1)c1ccc(Br)cc1 [Compound 8a]
5HT2A
  IC50: 81.4 nM
  inhibition at 1 µM: 83.2 ± 1.98%

## Cc1nc2n(c(=O)c1CCN1CCC(=C3c4ccc(Cl)cc4CCc4cccnc43)CC1)CCC[C@H]2O (single isomer, unassigned) [Compound 22 g]
5HT2A
  IC50: 11.1 nM

## O=C1Cc2cc(C(=O)CN3CCC(=C4c5ccc(Cl)cc5CCc5cccnc54)CC3)c(Cl)cc2N1 [Compound 8c]
5HT2A
  % Inhibition at 1 μM (SD): 73.02 ± 0.51%
  inhibition at 1 µM: 73%

## Cc1nc2n(c(=O)c1CCN1CCC(=C3c4ccc(Cl)cc4CCc4cccnc43)CC1)CCC[C@H]2O (single isomer, unassigned) [22 g]
5HT2A
  % Inhibition at 1 μM (SD): 97.17 ± 7.11%

## O=C1Cc2cc(C(=O)CN3CCC(=C4c5ccc(Cl)cc5CCc5cccnc54)CC3)ccc2N1 [Compound 8b]
5HT2A
  % Inhibition at 1 μM (SD): 68.34 ± 2.78%
  inhibition at 1 µM: 68%

## Cc1nc2n(c(=O)c1CCN1CCC(=C3c4ccccc4CCc4cccnc43)CC1)CCCC2O (stereo not drawn) [Compound 11e]
5HT2A
  IC50: 61 nM
  IC50 (nM): less potency than compound 11c
  inhibition at 1 µM: 89.2 ± 11%
